The record followed here is ChEMBL document CHEMBL1201862, “PubChem BioAssay data set” (2004).

Molecules are shown by their SMILES. Calls of active or inactive are those of the source.

One assay addresses Nonstructural protein 1 (Influenza A virus, UniProt Q194T2). The assay is classed as functional, Influenza A virus (A/California/07/2009(H1N1)).
The nature of assay [1]: growth suppression of PTEN-null colon cells, dose response, cell-based, HCT116 PTEN knockout (AID 1047).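 Note: HCT116 colon tumor cells with PTEN knocked out; cells exposed to compound for 60 hours before readout; potency for loss of cell viability measured by luminescence.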 The assay is classed as functional.
Assay [2] is described as follows: growth suppression of beta-catenin-knockout colon cells, dose response, cell-based, HCT116, human colon tumor (AID 1045).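 Note: HCT116 colon tumor cells with beta catenin knocked out; cells exposed to compound for 60 hours.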 The assay is classed as functional.
Assay [3] is described as follows: Fluorescence-based cell-based high throughput dose response assay for inhibitors of the interaction of nucleotide-binding oligomerization domain containing 2 (NOD2) and the receptor-interacting serine-threonine kinase 2 (RIPK2). The note with it: Homo sapiens. The format is functional.
Another assay addresses Caspase-7 (Homo sapiens, UniProt P55210). Put plainly: human caspase-7 inhibitors, dose response, selectivity assay for caspase-6 inhibitor project, biochemical, DEVD-R110 fluorescence, cherry-pick (AID 743295). The format is […].
For assay [4], the target named is T1, Calpain-2 catalytic subunit (Sus scrofa, UniProt P43367).
T1 sequence (P43367 whole entry): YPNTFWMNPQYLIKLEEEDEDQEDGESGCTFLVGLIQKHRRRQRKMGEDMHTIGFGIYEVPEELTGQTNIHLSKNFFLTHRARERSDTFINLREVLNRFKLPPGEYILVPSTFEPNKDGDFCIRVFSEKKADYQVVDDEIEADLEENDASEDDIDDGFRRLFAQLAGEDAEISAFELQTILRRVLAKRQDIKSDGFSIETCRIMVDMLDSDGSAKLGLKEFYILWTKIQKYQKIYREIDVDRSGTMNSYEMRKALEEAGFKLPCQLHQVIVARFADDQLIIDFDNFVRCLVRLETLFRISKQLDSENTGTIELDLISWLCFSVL
Briefly: pig calpain II inhibitor potency, dose response, biochemical, fluorogenic peptide substrate (AID 1420). The assay is classed as functional.

Assay [5] concerns the target Small ubiquitin-related modifier 2 (Homo sapiens, UniProt P61956). Briefly: SUMO2–SIM peptide binding inhibitors, dose response, selectivity assay for SUMO1 interaction inhibitor project, biochemical, fluorescence polarization, uHTS hits (AID 624385). The format is functional. The following applies: read-out: IC50_Mean. (In fluorescence polarisation assays a small probe gives low polarisation when free and higher when bound to something large.)

The target in assay [6] is Small ubiquitin-related modifier 1 (Homo sapiens, UniProt P63165). Briefly: inhibitors of SUMO1 peptide binding, dose response, biochemical, fluorescence polarization, uHTS hits (AID 624382). The following applies: read-out: IC50_Mean. The format is functional.
In a further assay the target is Fatty acid synthase (Homo sapiens, UniProt P49327). Briefly: FAS thioesterase domain inhibitors, dose response, biochemical, kinetic fluorescence intensity (AID 624326).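 Note: rate of fluorescence rise from hydrolysis of a fluorogenic O-methyl fluorescein ester substrate.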 The format is functional.
Assay [7] can be described thus: Luminescence Cell-Based Dose Response HTS to Identify Inhibitors of 5'UTR Stem-Loop Driven Prion Protein mRNA Translation in H4 Neuroglioblastoma Cells. [Related pubchem assays: 1827 (Project Summary), 1813 (Primary HTS)]. The assay is classed as functional.
Assay [8] has as its target G-protein coupled receptor 55 (Homo sapiens, UniProt Q9Y2T6). Briefly: GPR55 antagonists blocking LPI-driven arrestin recruitment, primary screen, imaging, U2OS, beta-arrestin-GFP, LPI agonist (AID 2013).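 Note: antagonist potency measured as reduced agonist-driven arrestin aggregation.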 The format is functional. (Recruitment of arrestin is a read-out of receptor activation apart from second messengers.)
The target of assay [9] is Protein-tyrosine kinase 2-beta (Homo sapiens, UniProt Q14289).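 Note: potency of inhibitors of PYK2 kinase phosphorylation of poly-GT substrate.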
The target in assay [10] is Peroxisome proliferator-activated receptor gamma/Nuclear receptor coactivator 2 (Homo sapiens, UniProt P37231). Briefly: TR-FRET dose response biochemical High Throughput Screening assay for agonists of the steroid receptor coactivator 2 (SRC-2) recruitment by the peroxisome proliferator-activated receptor gamma (PPAR gamma): non-selective agonists. [Related pubchem assays: 1297, 1032 ]. The format is functional. (TR-FRET usually uses a lanthanide donor and a delayed reading to cut background.)

Assay [11] deals with Voltage-gated inwardly rectifying potassium channel KCNH2 (Homo sapiens, UniProt Q12809). Briefly: hERG protection from proarrhythmic block, potency, dose response, cell-based, thallium flux (AID 2121). The format is ADME.
In assay [12] the target is T2, Mitochondrial peptide methionine sulfoxide reductase (Bos taurus, UniProt P54149).
T2 sequence (P54149 whole entry): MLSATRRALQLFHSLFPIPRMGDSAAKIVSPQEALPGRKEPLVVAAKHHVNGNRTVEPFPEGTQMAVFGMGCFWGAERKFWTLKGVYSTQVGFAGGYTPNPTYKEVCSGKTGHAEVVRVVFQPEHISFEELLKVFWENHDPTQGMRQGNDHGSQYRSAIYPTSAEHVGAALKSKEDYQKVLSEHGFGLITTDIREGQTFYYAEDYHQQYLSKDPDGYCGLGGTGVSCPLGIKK
Briefly: Absorbance-based biochemical high throughput dose response assay for activators of Methionine sulfoxide reductase A (MsrA). The assay is classed as functional.

Assay [13] can be described thus: miR-122 activators in hepatoma reporter cells, dose response, cell-based, Huh7 psiCHECK-miR122, Renilla luciferase, cherry-picked (AID 651956).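 Note: huh7 hepatoma cells stably carrying a psiCHECK-2 miR-122 sensor plasmid; renilla luciferase signal reporting endogenous miR-122 activity after 48 h compound exposure.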 The assay is classed as functional.
In assay [14] the target is Histone-lysine N-methyltransferase NSD2 (Homo sapiens, UniProt O96028). The format is biochemical.
A short description of assay [15]: HEK293T cytotoxicity, dose response, cytotoxicity control for miR-122 modulator project, cell-based, inhibitor set, cherry-pick, set 2 (AID 720697). The assay is classed as functional.
The nature of assay [16]: Counterscreen for AddAB inhibitors: absorbance-based bacterial cell-based high throughput dose response assay for inhibitors of bacterial viability. [Related pubchem assays (depositor defined):AID435030, AID449728, AID449731, AID488942, AID488955, AID488956]. The assay is classed as functional.
Another assay concerns Jurkat. Put plainly: SAR Analysis of small molecule inhibitors of T-cell specific antigen receptor-induced NF-kB activation in a Jurkat cell line using a luminescence assay. [Related pubchem assays (depositor defined):AID435003, AID435012, AID465]. The assay is classed as functional, cell-based. The note with it: Homo sapiens.
The next assay has as its system HEK293. Briefly: SAR Analysis of small molecule inhibitors of T-cell specific antigen receptor-induced NF-kB activation in a HEK-293T cell line using a luminescence assay - Set 2. [Related pubchem assays (depositor defined):AID435003, AID435012, AID489026]. The format is functional, cell-based. The note with it: Homo sapiens.
Assay [17] addresses ATP-dependent molecular chaperone HSP82 (Candida albicans (strain WO-1) (Yeast), UniProt C4YTQ8). Briefly: loss of DOC-induced GRE-beta-galactosidase reporter signal, dose response, Hsp90 inhibitor project, S. cerevisiae, luminescence (AID 2400).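 Note: beta-galactosidase luminescence from glucocorticoid response element reporter as proxy for Hsp90 function; inhibitor potency where signal loss means Hsp90 inhibition.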 The assay is classed as functional, cell-based.
Assay [18] addresses T3, Type-1 angiotensin II receptor (Homo sapiens, UniProt P30556).
T3 sequence (P30556 whole entry): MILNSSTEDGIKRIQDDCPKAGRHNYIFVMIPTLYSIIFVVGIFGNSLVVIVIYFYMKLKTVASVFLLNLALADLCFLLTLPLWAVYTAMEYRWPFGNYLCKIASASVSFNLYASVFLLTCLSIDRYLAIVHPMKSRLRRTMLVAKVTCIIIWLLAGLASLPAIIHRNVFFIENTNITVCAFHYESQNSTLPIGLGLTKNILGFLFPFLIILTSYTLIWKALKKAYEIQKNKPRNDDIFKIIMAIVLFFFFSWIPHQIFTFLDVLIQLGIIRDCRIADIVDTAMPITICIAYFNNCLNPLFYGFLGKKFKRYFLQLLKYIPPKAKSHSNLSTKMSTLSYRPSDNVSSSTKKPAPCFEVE
Put plainly: AT1 receptor agonists, dose response, selectivity assay for APJ receptor agonist project, cell-based, uHTS hits (AID 488865).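 Note: beta-arrestin recruitment to AT1 measured by enzyme fragment complementation luminescence.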 The assay is classed as functional.

The target of assay [19] is Heat shock protein HSP 90-alpha (Homo sapiens, UniProt P07900). The assay is classed as functional, organism-based.

Nonstructural protein 1, sequence (Q194T2 whole entry): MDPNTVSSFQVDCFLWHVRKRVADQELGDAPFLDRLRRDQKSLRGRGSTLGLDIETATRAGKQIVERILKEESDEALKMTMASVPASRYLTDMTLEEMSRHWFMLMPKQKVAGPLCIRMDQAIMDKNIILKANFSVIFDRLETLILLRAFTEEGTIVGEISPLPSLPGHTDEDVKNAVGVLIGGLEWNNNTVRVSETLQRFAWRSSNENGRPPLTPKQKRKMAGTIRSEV
Peroxisome proliferator-activated receptor gamma/Nuclear receptor coactivator 2, sequence (P37231 whole entry): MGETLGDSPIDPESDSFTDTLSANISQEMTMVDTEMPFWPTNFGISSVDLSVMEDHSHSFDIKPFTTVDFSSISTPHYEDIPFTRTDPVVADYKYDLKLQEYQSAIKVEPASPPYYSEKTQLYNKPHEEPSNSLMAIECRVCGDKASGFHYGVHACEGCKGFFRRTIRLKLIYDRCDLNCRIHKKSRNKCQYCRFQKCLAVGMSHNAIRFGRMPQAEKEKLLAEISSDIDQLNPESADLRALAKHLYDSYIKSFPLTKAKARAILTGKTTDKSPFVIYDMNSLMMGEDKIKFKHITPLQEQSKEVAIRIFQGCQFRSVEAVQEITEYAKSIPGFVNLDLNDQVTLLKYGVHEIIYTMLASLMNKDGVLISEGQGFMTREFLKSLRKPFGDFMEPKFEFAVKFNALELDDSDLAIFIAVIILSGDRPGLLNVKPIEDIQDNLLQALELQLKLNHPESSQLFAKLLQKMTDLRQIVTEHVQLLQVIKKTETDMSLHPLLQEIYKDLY
Peroxisome proliferator-activated receptor gamma/Nuclear receptor coactivator 2, sequence (Q15596 whole entry, further chain): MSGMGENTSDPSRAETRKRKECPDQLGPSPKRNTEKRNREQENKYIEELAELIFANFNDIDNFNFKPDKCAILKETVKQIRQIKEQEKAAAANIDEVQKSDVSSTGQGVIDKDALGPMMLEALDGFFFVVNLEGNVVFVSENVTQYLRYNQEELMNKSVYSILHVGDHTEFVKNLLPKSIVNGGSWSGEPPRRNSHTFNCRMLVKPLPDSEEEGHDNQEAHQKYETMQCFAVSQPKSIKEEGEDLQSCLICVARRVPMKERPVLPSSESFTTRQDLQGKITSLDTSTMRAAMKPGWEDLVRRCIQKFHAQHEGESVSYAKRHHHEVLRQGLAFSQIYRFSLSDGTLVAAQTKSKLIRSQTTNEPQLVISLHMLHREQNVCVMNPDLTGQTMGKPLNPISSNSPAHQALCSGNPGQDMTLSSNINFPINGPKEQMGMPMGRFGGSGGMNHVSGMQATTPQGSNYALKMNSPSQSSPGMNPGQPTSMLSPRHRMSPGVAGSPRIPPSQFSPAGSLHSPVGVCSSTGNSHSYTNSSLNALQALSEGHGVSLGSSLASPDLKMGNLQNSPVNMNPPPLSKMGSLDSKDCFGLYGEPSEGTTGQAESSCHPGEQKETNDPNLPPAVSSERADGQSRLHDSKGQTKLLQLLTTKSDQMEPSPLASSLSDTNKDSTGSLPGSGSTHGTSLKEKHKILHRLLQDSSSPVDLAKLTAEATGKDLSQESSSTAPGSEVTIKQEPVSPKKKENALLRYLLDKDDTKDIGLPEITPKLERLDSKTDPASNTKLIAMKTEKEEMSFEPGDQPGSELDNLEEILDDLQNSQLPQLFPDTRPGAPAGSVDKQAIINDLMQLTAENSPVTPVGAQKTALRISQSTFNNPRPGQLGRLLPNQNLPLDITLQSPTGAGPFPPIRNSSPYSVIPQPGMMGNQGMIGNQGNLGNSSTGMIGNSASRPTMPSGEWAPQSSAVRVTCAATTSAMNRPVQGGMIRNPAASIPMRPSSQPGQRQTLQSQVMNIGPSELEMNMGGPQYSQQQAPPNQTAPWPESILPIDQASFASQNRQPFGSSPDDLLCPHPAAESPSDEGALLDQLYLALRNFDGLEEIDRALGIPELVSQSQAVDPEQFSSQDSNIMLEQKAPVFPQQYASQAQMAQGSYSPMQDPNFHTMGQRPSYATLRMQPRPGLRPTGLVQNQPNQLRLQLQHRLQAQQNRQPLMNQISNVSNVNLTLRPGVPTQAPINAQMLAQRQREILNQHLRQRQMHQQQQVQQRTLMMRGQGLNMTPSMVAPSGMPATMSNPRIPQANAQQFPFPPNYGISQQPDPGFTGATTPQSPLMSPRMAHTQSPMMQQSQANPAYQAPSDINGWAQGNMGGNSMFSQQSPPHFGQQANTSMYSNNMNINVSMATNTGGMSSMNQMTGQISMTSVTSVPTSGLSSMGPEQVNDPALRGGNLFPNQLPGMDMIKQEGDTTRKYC
Protein-tyrosine kinase 2-beta, sequence (Q14289 whole entry): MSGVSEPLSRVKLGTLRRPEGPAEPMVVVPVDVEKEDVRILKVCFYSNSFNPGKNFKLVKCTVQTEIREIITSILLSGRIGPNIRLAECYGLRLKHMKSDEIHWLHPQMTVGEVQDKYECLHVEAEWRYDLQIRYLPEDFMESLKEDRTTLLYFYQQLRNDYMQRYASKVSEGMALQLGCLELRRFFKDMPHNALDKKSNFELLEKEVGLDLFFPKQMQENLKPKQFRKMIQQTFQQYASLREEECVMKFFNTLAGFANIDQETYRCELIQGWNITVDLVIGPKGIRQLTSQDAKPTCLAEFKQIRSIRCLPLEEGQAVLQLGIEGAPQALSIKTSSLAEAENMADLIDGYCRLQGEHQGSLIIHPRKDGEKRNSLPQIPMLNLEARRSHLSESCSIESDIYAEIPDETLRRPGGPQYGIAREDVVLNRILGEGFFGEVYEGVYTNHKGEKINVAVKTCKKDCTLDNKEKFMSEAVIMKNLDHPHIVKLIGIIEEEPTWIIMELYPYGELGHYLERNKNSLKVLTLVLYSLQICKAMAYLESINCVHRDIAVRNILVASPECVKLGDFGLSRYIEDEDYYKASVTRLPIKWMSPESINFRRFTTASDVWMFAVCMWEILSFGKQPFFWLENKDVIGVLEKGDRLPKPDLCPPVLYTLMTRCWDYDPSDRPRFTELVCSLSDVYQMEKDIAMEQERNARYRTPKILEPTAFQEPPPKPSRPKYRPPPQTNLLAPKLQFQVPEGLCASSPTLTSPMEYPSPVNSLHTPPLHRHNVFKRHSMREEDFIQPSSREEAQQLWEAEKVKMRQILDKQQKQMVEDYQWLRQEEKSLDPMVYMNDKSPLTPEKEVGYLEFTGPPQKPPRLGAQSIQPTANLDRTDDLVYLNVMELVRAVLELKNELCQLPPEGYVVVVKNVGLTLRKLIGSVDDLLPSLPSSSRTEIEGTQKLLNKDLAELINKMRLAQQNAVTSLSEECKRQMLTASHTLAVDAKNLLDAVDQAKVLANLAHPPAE
Voltage-gated inwardly rectifying potassium channel KCNH2, sequence (Q12809 whole entry): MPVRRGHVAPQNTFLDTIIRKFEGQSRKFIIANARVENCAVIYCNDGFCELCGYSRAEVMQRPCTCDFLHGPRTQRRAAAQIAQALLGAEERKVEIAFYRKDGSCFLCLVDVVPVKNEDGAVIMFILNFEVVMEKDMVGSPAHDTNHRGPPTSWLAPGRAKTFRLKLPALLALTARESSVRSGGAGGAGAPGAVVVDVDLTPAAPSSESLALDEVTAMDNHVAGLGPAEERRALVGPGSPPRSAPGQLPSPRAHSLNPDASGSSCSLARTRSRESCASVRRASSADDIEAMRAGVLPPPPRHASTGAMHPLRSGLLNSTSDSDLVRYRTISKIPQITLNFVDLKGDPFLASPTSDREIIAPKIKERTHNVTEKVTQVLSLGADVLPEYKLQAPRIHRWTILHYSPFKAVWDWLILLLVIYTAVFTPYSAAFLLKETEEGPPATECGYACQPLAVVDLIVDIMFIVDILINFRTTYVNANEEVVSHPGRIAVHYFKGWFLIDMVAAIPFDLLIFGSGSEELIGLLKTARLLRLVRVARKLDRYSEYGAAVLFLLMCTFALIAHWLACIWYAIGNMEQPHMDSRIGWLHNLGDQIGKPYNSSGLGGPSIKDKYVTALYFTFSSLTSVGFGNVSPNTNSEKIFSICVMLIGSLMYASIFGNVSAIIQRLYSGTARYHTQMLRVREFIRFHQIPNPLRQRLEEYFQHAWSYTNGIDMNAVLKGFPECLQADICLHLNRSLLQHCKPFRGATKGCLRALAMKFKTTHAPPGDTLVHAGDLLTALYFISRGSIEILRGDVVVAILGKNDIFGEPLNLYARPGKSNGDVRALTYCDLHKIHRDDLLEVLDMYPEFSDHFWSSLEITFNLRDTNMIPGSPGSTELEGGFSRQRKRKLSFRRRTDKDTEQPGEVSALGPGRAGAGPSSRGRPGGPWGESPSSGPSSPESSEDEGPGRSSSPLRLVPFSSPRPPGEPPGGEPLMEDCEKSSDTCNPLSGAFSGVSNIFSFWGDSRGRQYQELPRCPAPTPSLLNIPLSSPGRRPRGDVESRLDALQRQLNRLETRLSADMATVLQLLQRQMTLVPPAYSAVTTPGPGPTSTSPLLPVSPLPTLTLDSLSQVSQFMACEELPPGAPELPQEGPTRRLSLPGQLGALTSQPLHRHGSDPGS
ATP-dependent molecular chaperone HSP82, sequence (C4YTQ8 whole entry): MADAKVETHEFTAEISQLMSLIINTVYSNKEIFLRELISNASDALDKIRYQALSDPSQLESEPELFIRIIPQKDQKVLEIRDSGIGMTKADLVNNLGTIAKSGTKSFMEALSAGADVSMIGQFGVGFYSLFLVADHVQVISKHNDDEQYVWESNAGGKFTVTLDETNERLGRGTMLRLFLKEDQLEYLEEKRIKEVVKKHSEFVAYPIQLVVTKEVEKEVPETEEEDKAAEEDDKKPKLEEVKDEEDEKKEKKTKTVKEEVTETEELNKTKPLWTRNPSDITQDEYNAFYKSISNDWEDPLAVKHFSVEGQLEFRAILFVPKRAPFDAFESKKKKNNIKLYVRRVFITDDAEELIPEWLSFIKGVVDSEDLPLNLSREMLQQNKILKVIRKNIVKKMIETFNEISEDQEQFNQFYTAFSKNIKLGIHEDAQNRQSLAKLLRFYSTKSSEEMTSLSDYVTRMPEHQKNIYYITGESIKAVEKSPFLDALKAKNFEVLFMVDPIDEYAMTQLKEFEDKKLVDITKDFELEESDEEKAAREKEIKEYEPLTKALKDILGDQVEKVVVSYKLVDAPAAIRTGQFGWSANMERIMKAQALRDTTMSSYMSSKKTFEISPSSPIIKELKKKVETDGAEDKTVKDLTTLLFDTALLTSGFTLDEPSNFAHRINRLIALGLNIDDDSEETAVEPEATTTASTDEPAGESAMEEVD

In the case of `COC(CNC(=O)c1ccc2c3c(onc13)-c1ccccc1C2=O)OC`, the IC50 at Nonstructural protein 1 was 82.4 µM (active).
By EC50 is commonly meant the concentration at which the effect is half-maximal. With `COC(=O)[C@@H]1[C@@H](C(=O)OC)C2(c3ccccc3-c3ccccc32)N(c2ccc(Cl)cc2)N1C#N`, the EC50 in assay [1] is 7.77 µM (active); in assay [2], 8.83 µM (active). In addition, the IC50 in [3] was 1.77 µM (active).
A word on the AC50: it is the concentration giving half of the maximal activity seen. In the case of `COc1ccc(OC)c(Nc2cc3ccccc3c(O)n2)c1`, at Caspase-7, the concentration at half-maximal activity (AC50) is 5.9 µM (active).
As for `COc1cc(-c2ccc(Nc3ccccc3C(=O)O)c(OC)c2)ccc1Nc1ccccc1C(=O)O`, the IC50 in assay [4] is 2.87 µM (not active); in assay [5], 2.34 µM (active); in assay [6] it was 0.647 µM (active); at Fatty acid synthase, 6.68 µM (active).
On to `Nc1ccc2c(c1)C(=O)C(=O)c1ccccc1-2`, for which the EC50 in [7] was 8.68 µM (inconclusive); in [10], 12.1 µM (not active); in assay [11], 1.38 µM (active); in assay [12], 9.09 µM (active). Further, the figures for the IC50 in assay [8] and in assay [9] were 1.36 µM (active) and > 69.5 µM (not active), respectively. The AC50 is 10.7 µM (active) in assay [13], 0.273 µM (active) in [14] and 2.19 µM (active) in [15].
Consider `CCCC(=O)NC(c1ccccc1OC)c1ccc2cccnc2c1O` (centres undefined), for which the IC50 in assay [16] was > 119 µM (inactive); with Jurkat, 3.82 µM (active); in the assay on HEK293 it was 3.97 µM (active). Also, the half-maximal effective concentration (EC50) in assay [17] is 25.9 µM (active).
In the case of `Cc1ccc2nc(/C(C#N)=C\c3ccc([N+](=O)[O-])o3)[nH]c2c1`, in assay [18], the EC50 is > 100 µM (inactive). Moreover, the AC50 in [19] is < 0.195 µM (active).
